Results reported in ChEMBL document CHEMBL1201862, “PubChem BioAssay data set” (2004).
The source made the active and inactive calls.

Experiments:
Cytochrome P450 2C9 = Cytochrome P450 2C9 (Homo sapiens, UniProt P11712)
Cytochrome P450 2D6 = Cytochrome P450 2D6 (Homo sapiens, UniProt P10635);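 further: CYP2D6 member of a cytochrome P450 panel assay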
Cytochrome P450 1A2 = target: T1, Cytochrome P450 1A2 (Homo sapiens, UniProt P05177);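 further: PubChem cytochrome P450 panel assay, CYP1A2 panel member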
T1 sequence (P05177 whole entry): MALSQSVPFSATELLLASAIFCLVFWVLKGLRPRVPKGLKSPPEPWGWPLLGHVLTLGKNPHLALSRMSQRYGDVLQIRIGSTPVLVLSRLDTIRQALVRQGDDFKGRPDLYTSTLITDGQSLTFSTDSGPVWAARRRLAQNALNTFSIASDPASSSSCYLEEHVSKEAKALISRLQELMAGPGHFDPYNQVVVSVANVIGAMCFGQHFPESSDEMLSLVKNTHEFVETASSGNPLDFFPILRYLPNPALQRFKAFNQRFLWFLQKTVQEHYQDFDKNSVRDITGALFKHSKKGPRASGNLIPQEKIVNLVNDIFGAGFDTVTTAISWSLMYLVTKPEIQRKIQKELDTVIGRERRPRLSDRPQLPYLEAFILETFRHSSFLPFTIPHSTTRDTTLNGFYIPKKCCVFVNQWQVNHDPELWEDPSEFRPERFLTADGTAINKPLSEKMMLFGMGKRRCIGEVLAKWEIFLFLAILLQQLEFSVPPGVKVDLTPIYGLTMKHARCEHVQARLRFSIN

[1] = tested on: Streptococcus sp. 'group A'; experiment: Streptococcus pyogenes SK(-)GAS viability under kanamycin – luminescence, BacTiterGlo, confirmation, counter-screen for streptokinase expression inhibitor project, dose response (AID 1900); format: functional, organism-based
Streptokinase A = target: T2, Streptokinase A (Streptococcus pyogenes serotype M1, UniProt P10520); experiment: viability-normalized secreted streptokinase activity reduction – plasminogen activation absorbance, OD405, dose response (AID 1914); format: functional, Streptococcus pyogenes M1 GAS;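 further: secreted streptokinase activity via plasminogen activation per viability signal from cell pellet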
T2 sequence (P10520 whole entry): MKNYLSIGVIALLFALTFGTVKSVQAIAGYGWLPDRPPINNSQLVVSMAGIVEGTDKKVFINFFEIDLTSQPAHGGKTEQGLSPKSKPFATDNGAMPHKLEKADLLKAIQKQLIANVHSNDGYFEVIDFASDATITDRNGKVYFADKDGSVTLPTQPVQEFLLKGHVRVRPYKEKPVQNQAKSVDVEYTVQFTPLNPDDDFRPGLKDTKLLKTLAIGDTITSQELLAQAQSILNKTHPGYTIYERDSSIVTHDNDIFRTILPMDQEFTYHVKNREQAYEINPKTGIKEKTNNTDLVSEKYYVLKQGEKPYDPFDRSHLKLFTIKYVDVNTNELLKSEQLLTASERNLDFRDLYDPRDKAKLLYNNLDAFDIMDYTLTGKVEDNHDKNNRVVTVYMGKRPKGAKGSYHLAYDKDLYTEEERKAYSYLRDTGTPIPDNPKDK

Streptococcus = experiment: GAS UMAA2166 growth inhibition – luminescence, BacTiterGlo, counter-screen for streptokinase expression inhibitor project, dose response (AID 1915); format: functional, organism-based;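 further: potency for reduction of bacterial viability or growth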
INS1 = experiment: INS-1E survival protection against cytokine death – cell-based, luminescence, retest, dose response (AID 449756); format: functional; settings: Rattus norvegicus;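 further: cell death triggered by IL-1 beta plus TNF-alpha plus IFN-gamma mixture; protective hits raise ATP signal compared with cytokine alone wells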
Cytochrome P450 2C19 = Cytochrome P450 2C19 (Homo sapiens, UniProt P33261); experiment: Cytochrome panel assay with activity outcomes. Panel member name: p450-cyp2c19 Compounds with AC50 equal or less than 10 uM are considered active; format: functional; settings: read-out: AC50
[2] = Trypanosoma cruzi growth suppression in host cells – NIH3T3 host cells, beta-gal luminescence, confirmation (AID 2044); format: functional, cell-based;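 further: intracellular parasites grown in NIH/3T3 mouse fibroblasts as host cells; luminescent beta-galactosidase reporter signal from transgenic T. cruzi replicating inside host cells; inhibitors lower the luminescence signal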
[3] = NIH3T3 cell viability loss – ATP luminescence, mouse fibroblasts, counter-screen, dose response (AID 2010); format: functional, cell-based;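 further: cells exposed to compound for about 90 hours before reading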
[4] = Luminescence Cell-Based Dose Retest to Confirm Inhibitors of Cancer Stem Cells. [Related pubchem assays (depositor defined):AID2717, AID2721]; format: functional; settings: Homo sapiens
Cytochrome P450 3A4 = Cytochrome P450 3A4 (Homo sapiens, UniProt P08684);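 further: CYP3A4 tested as one member of a cytochrome P450 panel screen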
[5] = Luminescence Cell-Based Dose Response HTS to Identify Inhibitors of 5'UTR Stem-Loop Driven Prion Protein mRNA Translation in H4 Neuroglioblastoma Cells. [Related pubchem assays: 1827 (Project Summary), 1813 (Primary HTS)]; format: functional
[6] = alpha-synuclein stem-loop luciferase translation blockers – H4 neuroglioma cells, luminescence, confirmation (AID 1988); format: functional, cell-based
[7] = luciferase reporter signal suppression in cells – H4 neuroglioma cells, luminescence, dose response (AID 1990); format: functional, cell-based

Chain of Cytochrome P450 2D6 (P10635 whole entry): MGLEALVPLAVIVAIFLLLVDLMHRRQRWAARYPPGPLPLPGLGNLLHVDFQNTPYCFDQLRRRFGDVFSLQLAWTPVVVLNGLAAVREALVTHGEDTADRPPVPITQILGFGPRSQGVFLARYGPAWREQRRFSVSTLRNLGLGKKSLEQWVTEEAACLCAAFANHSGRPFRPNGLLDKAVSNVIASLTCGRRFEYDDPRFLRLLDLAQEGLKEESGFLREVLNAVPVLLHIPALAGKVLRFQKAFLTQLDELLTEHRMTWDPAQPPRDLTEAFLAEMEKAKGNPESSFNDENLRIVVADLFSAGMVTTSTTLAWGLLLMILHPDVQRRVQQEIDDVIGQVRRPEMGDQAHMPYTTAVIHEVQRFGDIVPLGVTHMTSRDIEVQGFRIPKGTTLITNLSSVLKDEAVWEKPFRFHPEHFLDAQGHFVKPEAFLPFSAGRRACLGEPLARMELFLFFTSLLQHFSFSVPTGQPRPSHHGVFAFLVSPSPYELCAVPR
Chain of Cytochrome P450 2C19 (P33261 whole entry): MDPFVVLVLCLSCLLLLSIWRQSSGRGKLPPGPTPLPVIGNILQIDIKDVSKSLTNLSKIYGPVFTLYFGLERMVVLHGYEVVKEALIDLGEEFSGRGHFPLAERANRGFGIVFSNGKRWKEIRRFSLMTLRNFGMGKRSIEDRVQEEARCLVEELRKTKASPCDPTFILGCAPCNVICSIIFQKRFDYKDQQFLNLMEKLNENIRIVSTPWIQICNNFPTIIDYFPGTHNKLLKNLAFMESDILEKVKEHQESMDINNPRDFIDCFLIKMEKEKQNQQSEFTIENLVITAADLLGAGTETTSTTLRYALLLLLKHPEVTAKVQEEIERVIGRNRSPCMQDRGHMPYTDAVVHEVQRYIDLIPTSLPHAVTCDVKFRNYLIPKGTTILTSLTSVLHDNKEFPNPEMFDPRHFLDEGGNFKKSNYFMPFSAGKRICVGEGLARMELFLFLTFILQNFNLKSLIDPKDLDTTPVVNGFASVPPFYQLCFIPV
Chain of Cytochrome P450 2C9 (P11712 whole entry): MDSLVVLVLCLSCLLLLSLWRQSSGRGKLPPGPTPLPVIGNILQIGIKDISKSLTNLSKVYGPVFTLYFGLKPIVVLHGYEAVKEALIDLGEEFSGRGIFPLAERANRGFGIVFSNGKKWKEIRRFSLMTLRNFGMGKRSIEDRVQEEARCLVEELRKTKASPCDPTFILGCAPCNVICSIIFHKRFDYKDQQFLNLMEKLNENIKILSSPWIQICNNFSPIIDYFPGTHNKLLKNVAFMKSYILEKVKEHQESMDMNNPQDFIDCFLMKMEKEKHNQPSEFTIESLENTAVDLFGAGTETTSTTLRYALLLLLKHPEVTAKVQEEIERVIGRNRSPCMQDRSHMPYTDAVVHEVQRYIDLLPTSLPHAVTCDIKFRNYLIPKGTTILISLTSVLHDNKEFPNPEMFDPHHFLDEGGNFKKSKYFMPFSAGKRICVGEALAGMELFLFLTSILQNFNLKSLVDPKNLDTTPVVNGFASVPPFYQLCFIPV
Chain of Cytochrome P450 3A4 (P08684 whole entry): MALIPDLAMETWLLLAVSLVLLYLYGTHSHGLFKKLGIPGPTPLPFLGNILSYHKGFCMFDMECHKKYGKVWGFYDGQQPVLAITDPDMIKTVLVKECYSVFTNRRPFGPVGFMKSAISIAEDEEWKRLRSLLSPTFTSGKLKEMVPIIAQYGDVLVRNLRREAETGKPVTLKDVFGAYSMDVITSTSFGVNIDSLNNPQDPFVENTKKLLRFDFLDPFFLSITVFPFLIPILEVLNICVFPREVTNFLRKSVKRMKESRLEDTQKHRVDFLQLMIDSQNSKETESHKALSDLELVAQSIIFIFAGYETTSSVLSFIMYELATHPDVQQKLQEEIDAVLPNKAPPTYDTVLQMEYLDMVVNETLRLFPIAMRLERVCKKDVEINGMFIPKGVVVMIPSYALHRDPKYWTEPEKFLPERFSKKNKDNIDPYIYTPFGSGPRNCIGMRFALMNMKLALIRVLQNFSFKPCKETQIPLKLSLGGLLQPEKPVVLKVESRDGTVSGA

Question: What does the source list for Cc1cccc(NCCNc2cccc(C)c2)c1?
Answer: AC50 (Cytochrome P450 2C9): 17.8 µM (inconclusive); AC50 (Cytochrome P450 2D6): 12.6 µM (inconclusive)

Question: Which AC50 (Cytochrome P450 1A2) does the source give for CN1CCN(c2ncc3nc(-c4ccccc4)c(=O)n(C)c3n2)CC1 here?
Answer: 15.8 µM (inconclusive)

Question: What does the source list for O=C(c1nc2ccc(Cl)cn2c1CN1CCC(CO)CC1)N1CCc2ccccc2C1?
Answer: EC50 [1]: > 150 µM (not active); EC50 (Streptokinase A): > 150 µM (not active); EC50 (Streptococcus): > 150 µM (not active)

Question: For COc1ccccc1C1(CC(=O)Nc2nccs2)CCOC(C(C)C)C1 (configuration not stated), which AC50 (Cytochrome P450 1A2) is on record?
Answer: 5.62 µM (inconclusive)

Question: What about the AC50 (Cytochrome P450 2D6) of the same compound?
Answer: 22.4 µM (inconclusive)

Question: Which AC50 (INS1) does the source give for COC(=O)c1ccc(NC(=O)c2cccnc2)cc1 here?
Answer: 5.28 µM (active)

Question: What does the source list for CCSc1nnc(C(N)Cc2ccccc2)o1 (configuration not stated)?
Answer: AC50 (Cytochrome P450 2C9): 2.24 µM (inconclusive); AC50 (Cytochrome P450 2D6): 17.8 µM (inconclusive); AC50 (Cytochrome P450 2C19): 28.2 µM (inconclusive)

Question: Which EC50 [1] does the source give for COc1cccc(C(=O)Nc2nnc(-c3cccs3)o2)c1 here?
Answer: 9.25 µM (active)

Question: What about the EC50 (Streptokinase A) of the same compound?
Answer: > 150 µM (not active)

Question: And the EC50 (Streptococcus)?
Answer: 18.9 µM (active)

Question: Which EC50 [1] does the source give for Fc1cc(F)c(C2SCCN2C(=S)Nc2cccc(C(F)(F)F)c2)c(F)c1 (configuration not stated) here?
Answer: 6.86 µM (active)

Question: What about the EC50 (Streptokinase A) of the same compound?
Answer: 11.1 µM (active)

Question: And the EC50 (Streptococcus)?
Answer: > 150 µM (not active)

Question: For COc1ccc2[nH]c(C(O)(Cc3cccnc3)Cc3cccnc3)cc2c1, which EC50 [2] is on record?
Answer: 2.42 µM (active)

Question: What about the EC50 [3] of the same compound?
Answer: > 60 µM (inconclusive)

Question: Which EC50 [2] does the source give for C=CCOc1c(Cl)cc(CNCCCN2CCOCC2)cc1OC here?
Answer: 0.125 µM (active)

Question: And the EC50 [3]?
Answer: 20.2 µM (active)

Question: Which AC50 [4] does the source give for Cc1cc(C(C)(C)C)ccc1OCCCCN1CCCC1 here?
Answer: 2.57 µM (active)

Question: For COc1ccc2nc(O)c(CN(CCO)C(=O)c3cccs3)cc2c1, which AC50 (Cytochrome P450 3A4) is on record?
Answer: 15.8 µM (inconclusive)

Question: What about the AC50 (Cytochrome P450 1A2) of the same compound?
Answer: 20 µM (inconclusive)

Question: What about the AC50 (Cytochrome P450 2C19) of the same compound?
Answer: 31.6 µM (inconclusive)

Question: With Cc1sc2ncnc(SCC(=O)N3CCCC(C(F)(F)F)C3)c2c1C (configuration not stated) as the compound, how does the EC50 [1] read?
Answer: > 150 µM (not active)

Question: What about the EC50 (Streptokinase A) of the same compound?
Answer: > 150 µM (not active)

Question: What about the EC50 (Streptococcus) of the same compound?
Answer: > 150 µM (not active)

Question: With CCCN(CCC)CCCNC(=O)c1ccc2c(c1)N(CC)C(=O)c1ccccc1[S+]2[O-] (configuration not stated) as the compound, how does the AC50 (Cytochrome P450 1A2) read?
Answer: 0.01 µM (inconclusive)

Question: And the AC50 (Cytochrome P450 2D6)?
Answer: 22.4 µM (inconclusive)

Question: With NC(=O)OCC(COC(N)=O)c1ccccc1 [FELBAMATE] as the compound, how does the AC50 (Cytochrome P450 1A2) read?
Answer: 39.8 µM (inconclusive)

Question: For O=c1cc(CNc2cc(C(F)(F)F)cc(C(F)(F)F)c2)nc2sccn12, which EC50 [5] is on record?
Answer: 39.2 µM (active)

Question: What about the EC50 [6] of the same compound?
Answer: > 120 µM (not active)

Question: And the AC50 [4]?
Answer: 1.99 µM (active)

Question: And the EC50 [7]?
Answer: 17.5 µM (active)

Question: Which AC50 (Cytochrome P450 2D6) does the source give for Cc1ccc(O)c(C(=O)c2cc(C#N)c(=O)n(-c3c(C)n(C)n(-c4ccccc4)c3=O)c2)c1 here?
Answer: 10 µM (inconclusive)

Question: With O=C(NCCN1CCCC1)C1(S(=O)(=O)c2ccc(Cl)cc2)CC1 as the compound, how does the AC50 (Cytochrome P450 3A4) read?
Answer: 39.8 µM (inconclusive)

Question: What about the AC50 (Cytochrome P450 2D6) of the same compound?
Answer: 12.6 µM (inconclusive)

Question: And the AC50 (Cytochrome P450 2C19)?
Answer: 25.1 µM (inconclusive)

Question: With Cc1cc(C)c(S(=O)(=O)c2ccc(Cl)cc2C)c(Cl)n1 as the compound, how does the EC50 [2] read?
Answer: 0.336 µM (active)

Question: And the EC50 [3]?
Answer: 35.9 µM (active)

Question: What does the source list for Nc1c(Cl)cc(-c2csc(N3CCCC3c3nc4cc(Cl)c(Cl)cc4n3CCOCCO)n2)cc1Cl (configuration not stated)?
Answer: EC50 [1]: > 150 µM (not active); EC50 (Streptokinase A): > 150 µM (not active); EC50 (Streptococcus): > 150 µM (not active)

Question: Which AC50 (Cytochrome P450 1A2) does the source give for O=C(Nc1cccc(F)c1)N1CC[C@@]2(CCCN(S(=O)(=O)c3ccccc3)C2)C1 here?
Answer: 15.8 µM (inconclusive)

Question: And the AC50 (Cytochrome P450 2D6)?
Answer: 39.8 µM (inconclusive)

Question: For O=C(O)/C=C\C=C/c1ccc2c(c1)OCO2, which AC50 (Cytochrome P450 1A2) is on record?
Answer: 1.58 µM (inconclusive)

Question: With COc1cc2c(cc1NC(=O)Nc1ccc(F)cc1)oc1ccccc12 as the compound, how does the EC50 [2] read?
Answer: 1.94 µM (active)

Question: What about the EC50 [3] of the same compound?
Answer: > 30 µM (not active)

Question: With N#Cc1c(NC(=O)Cn2c(=O)oc3ccccc32)oc(-c2ccccc2)c1-c1ccccc1 as the compound, how does the AC50 [4] read?
Answer: 1.97 µM (active)

Question: Which AC50 (Cytochrome P450 2D6) does the source give for CCCC[N+]1(C)[C@@H]2CC(OC(=O)[C@@H](CO)c3ccccc3)C[C@H]1[C@H]1O[C@H]12 (some centres not stated) here?
Answer: 7.94 µM (inconclusive)
